From patent publication US9662318B2, “Bitopic muscarinic agonists and antagonists and methods of synthesis and use thereof” (BARRY UNIVERSITY, INC., priority 2012, dated 2017)
pIC50, pKi: −log10 of the molar value. Read-outs that look alike come from different tables or passages of the source.

Columns and labels:
M1 muscarinic receptor [1] = target: T1, M1 muscarinic receptor (Homo sapiens, UniProt P11229); assay: Accumulation of inositol phosphates in CHO cells; format: cell-based; details: ligand 0.1 mM, no carbachol
T1 sequence (P11229 1-460): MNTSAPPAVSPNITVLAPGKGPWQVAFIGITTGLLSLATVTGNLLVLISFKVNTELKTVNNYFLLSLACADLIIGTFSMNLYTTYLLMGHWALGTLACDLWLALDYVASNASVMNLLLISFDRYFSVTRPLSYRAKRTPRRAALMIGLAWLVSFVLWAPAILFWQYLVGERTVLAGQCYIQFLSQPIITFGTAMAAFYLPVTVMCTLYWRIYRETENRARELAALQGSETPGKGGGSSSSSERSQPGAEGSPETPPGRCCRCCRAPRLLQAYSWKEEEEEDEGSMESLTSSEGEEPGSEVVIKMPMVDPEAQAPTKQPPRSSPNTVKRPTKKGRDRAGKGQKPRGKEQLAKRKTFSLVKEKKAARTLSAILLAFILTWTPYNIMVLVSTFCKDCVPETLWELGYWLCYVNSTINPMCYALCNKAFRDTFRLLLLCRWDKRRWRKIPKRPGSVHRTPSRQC
Procedure: Chinese hamster ovary cells stably transfected with the genes of human variants of muscarinic receptors were purchased from Missouri S&T cDNA Resource Center (Rolla, Mo., USA). […] Cells were grown to confluency in 75 cm^2 flasks in Dulbecco's modified Eagle's medium supplemented with 10% fetal bovine serum and 2 million of cells were subcultured to 100 mm Petri dishes. Medium was supplemented with 5 mM butyrate for the last 24 hours of cultivation to increase receptor expression.
Inositolphosphates formation was determined in cells pre-labeled overnight by 0.5 μM [^3H]myo-inositol in 0.3 mL of DMEM (3 μCi/ml) at 37° C. […] Incubation was stopped by removal of incubation buffer and addition 0.2 mL 20% trichloracetic acid (TCA). After 1 h incubation at 4° C., 100 μL, of TCA extracts were taken for measurement. Rest of the TCA was removed, and TCA precipitates were washed with 200 μL TCA and dissolved in 200 μL of 1 M NaOH. After 1 h incubation at 4° C., 100 μL, of NaOH lysates were taken for measurement. Radioactivity in TCA extracts and NaOH lysates were determined by liquid scintillation counting. The rate of inositolphosphates accumulation was calculated as a percentage of the soluble (released) inositolphosphates from the total incorporated radioactivity (sum of radioactivity in NaOH lysates and TCA extracts).
EC50 values are expressed as negative logarithms and EMAX values as folds over basal, Table 7.

M3 muscarinic receptor [2] = target: T2, M3 muscarinic receptor (Homo sapiens, UniProt P20309); assay: Dissociation of [3H]acetylcholine (full time course kinetics); format: binding; details: [3H]acetylcholine dissociation
T2 construct: host or cells: Chinese hamster ovary cells
T2 sequence (P20309 whole entry): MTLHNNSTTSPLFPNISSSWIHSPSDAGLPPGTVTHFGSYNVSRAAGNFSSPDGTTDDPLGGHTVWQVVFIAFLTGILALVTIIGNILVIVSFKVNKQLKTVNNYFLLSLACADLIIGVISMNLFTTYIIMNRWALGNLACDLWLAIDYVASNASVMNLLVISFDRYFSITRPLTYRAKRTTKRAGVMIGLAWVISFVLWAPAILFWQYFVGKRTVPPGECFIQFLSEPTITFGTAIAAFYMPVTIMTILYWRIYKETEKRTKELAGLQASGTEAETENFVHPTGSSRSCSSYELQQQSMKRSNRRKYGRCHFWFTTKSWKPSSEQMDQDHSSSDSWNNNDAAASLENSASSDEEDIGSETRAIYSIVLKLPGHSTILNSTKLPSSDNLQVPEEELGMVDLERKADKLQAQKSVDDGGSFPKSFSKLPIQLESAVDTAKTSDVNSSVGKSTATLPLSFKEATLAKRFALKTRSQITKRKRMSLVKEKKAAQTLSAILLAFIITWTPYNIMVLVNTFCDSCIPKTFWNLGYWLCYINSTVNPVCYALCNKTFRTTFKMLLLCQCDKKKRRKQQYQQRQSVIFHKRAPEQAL
Source text: (§1) To probe the ability of JB-D4 to allosterically modulate orthosteric ligand, its effect on the rate of orthosteric radioligand dissociation has been investigated. […] where y is the percentage of radioligand binding at time x of radioligand binding at time 0, koff1 and koff2 are rate dissociation constants and f2 is the percentage of sites with koff2 rate of dissociation. […] y is the percentage of radioligand binding at time x of radioligand binding at time 0, koff is rate dissociation constant and f is percentage of sites with koff rate of dissociation. Eq. 2 was fitted to the data from kinetic experiments. Data are means±SD from 3 independent experiments performed in quadruplicates.

M5 muscarinic receptor [3] = target: T3, M5 muscarinic receptor (Homo sapiens, UniProt P08912); assay: as above; format: binding; details: [3H]acetylcholine dissociation
T3 construct: host or cells: CHO (Chinese hamster ovary) cells, stably transfected
T3 sequence (P08912 1-532): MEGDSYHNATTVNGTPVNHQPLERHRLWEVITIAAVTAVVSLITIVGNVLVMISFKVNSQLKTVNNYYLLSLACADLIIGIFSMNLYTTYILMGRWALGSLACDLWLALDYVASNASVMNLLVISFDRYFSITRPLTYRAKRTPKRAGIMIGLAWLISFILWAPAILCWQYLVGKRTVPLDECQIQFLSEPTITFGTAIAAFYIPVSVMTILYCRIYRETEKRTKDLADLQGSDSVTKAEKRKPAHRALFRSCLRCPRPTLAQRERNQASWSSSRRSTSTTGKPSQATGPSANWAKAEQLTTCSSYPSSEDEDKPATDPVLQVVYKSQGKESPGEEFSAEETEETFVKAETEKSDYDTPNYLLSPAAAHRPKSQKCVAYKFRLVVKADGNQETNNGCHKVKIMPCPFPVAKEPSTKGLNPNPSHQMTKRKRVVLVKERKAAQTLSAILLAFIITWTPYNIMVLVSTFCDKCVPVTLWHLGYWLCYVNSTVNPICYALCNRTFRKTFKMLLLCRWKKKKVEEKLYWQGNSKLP
Source text: as §1

M5 muscarinic receptor [4] = target: T3, M5 muscarinic receptor; assay: biochemical; format: binding; details: competition with [^3H]QNB
M3 muscarinic receptor [5] = target: T2, M3 muscarinic receptor; assay: biochemical; format: binding; details: competition with [^3H]QNB
M4 muscarinic receptor = target: T4, M4 muscarinic receptor (Homo sapiens, UniProt P08173); assay: Dissociation of [3H]NMS (full time course kinetics); format: binding; details: [^3H]NMS dissociation
T4 construct: host or cells: Chinese hamster ovary cells
T4 sequence (P08173 1-479): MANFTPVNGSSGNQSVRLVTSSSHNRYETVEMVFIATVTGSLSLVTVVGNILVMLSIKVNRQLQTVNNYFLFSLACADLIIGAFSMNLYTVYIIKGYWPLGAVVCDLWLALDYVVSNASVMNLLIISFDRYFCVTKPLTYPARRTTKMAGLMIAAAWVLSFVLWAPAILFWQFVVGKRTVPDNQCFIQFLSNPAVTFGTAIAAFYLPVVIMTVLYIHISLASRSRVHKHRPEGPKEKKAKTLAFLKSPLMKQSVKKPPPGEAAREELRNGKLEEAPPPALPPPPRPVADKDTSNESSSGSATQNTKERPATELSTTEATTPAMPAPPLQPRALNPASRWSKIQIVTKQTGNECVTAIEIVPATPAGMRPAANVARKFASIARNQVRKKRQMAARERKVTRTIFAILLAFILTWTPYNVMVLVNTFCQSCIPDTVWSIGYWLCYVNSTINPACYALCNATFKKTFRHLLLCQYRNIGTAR
Source text: (§2) To probe the ability of JB-D4 to allosterically modulate orthosteric ligand, its effect on the rate of orthosteric radioligand dissociation has been investigated. […] Eq. 1 was fitted to the data from kinetic experiments. Data are means±SD from 3 independent experiments performed in quadruplicates. Equations: y=(100-f2)*e^(-Koff1*X)+f2*e^(-Koff2*X) (Eq. 1) where y is the percentage of radioligand binding at time x of radioligand binding at time 0, koff1 and koff2 are rate dissociation constants and f2 is the percentage of sites with koff2 rate of dissociation. […]. 2)

M1 muscarinic receptor [6] = target: T1, M1 muscarinic receptor; assay: as above; format: binding; details: [^3H]NMS dissociation
Source text: as §2

M3 muscarinic receptor [7] = target: T2, M3 muscarinic receptor; assay: as above; format: binding; details: [^3H]NMS dissociation
Source text: as §2

M5 muscarinic receptor [8] = target: T3, M5 muscarinic receptor; assay: as above; format: binding; details: [^3H]NMS dissociation, +0.1 mM JB-D4, M5
Source text: as §2

## CCCCOc1ccc(C(=O)OCC[N+]2(C)CCCCC2)cc1.[I-] [JB-D4, 2-(N-piperidineethyl) p-butoxybenzoate N-methyl iodide]
M1 muscarinic receptor [1]
  Effect of ligands on basal activity (accumulation of inositol phosphates as percent of accumulation in the absence of the ligand): 97 ± 2%
M3 muscarinic receptor [2]; +0.1 mM JB-D4, M3
  f: 84 ± 3%
M3 muscarinic receptor [2]; +0.1 mM JB-D4, M3, read-out: koff (converted)
  koff: 0.00317 s⁻¹
M3 muscarinic receptor [2]; +1 mM JB-D4, M3
  f: 82 ± 3%
  koff: 0.0014 ± 0.00012 s⁻¹
M3 muscarinic receptor [2]; +1 mM JB-D4, M3, read-out: koff (converted)
  koff: 0.0014 s⁻¹
M5 muscarinic receptor [3]; +0.1 mM JB-D4, M5
  f: 81 ± 3%
M5 muscarinic receptor [3]; +0.1 mM JB-D4, M5, read-out: koff (converted)
  koff: 0.000633 s⁻¹
M5 muscarinic receptor [3]; +1 mM JB-D4, M5
  f: 81 ± 3%
  koff: 0.00055 ± 8.3e-05 s⁻¹
M5 muscarinic receptor [3]; +1 mM JB-D4, M5, read-out: koff (converted)
  koff: 0.00055 s⁻¹
M5 muscarinic receptor [4]; M5
  pKi: 6.08
M5 muscarinic receptor [4]; M5, average of 3, read-out: avg IC50
  pIC50: 5.18
M5 muscarinic receptor [4]; M5, experiment 1, read-out: IC50—1
  pIC50: 5.24
M5 muscarinic receptor [4]; M5, experiment 2, read-out: IC50—2
  pIC50: 5.17
M5 muscarinic receptor [4]; M5, experiment 3, read-out: IC50—3
  pIC50: 5.13
M3 muscarinic receptor [5]; M3
  pKi: 5.36
M3 muscarinic receptor [5]; M3, average of 3, read-out: avg IC50
  pIC50: 4.53
M3 muscarinic receptor [5]; M3, experiment 1, read-out: IC50—1
  pIC50: 4.40
M3 muscarinic receptor [5]; M3, experiment 2, read-out: IC50—2
  pIC50: 4.69
M3 muscarinic receptor [5]; M3, experiment 3, read-out: IC50—3
  pIC50: 4.55
M4 muscarinic receptor; +0.1 mM JB-D4, M4
  koff1: 0.000106 ± 8.3e-06 s⁻¹
M4 muscarinic receptor; +1 mM JB-D4, M4
  koff1: 2.11e-05 ± 1.7e-06 s⁻¹
M1 muscarinic receptor [6]; +0.1 mM JB-D4, M1
  koff1: 0.000253 ± 1.4e-05 s⁻¹
  koff2: 0.000319 ± 1.7e-05 s⁻¹
M1 muscarinic receptor [6]; +0.1 mM JB-D4, M1, percentage of sites with koff2
  f2: 12 ± 1%
M1 muscarinic receptor [6]; +1 mM JB-D4, M1
  koff1: 0.000169 ± 1.7e-05 s⁻¹
M3 muscarinic receptor [7]; +0.1 mM JB-D4, M3
  koff1: 0.000114 ± 8.3e-06 s⁻¹
M3 muscarinic receptor [7]; +1 mM JB-D4, M3
  koff1: 2.36e-05 ± 2.2e-06 s⁻¹
M5 muscarinic receptor [8]
  koff1: 5e-05 ± 2.8e-06 s⁻¹
